Data as given in publication PMC8151276, “An Integrated Approach toward NanoBRET Tracers for Analysis of GPCR Ligand Engagement” (Molecules, 2021).

Experiments:
Assay type in all cases: binding
PTGFR = molecular target: T1, PTGFR (Homo sapiens, UniProt P43088); assay: NanoBRET screen HiBiT-PTGFR in HEK293
T1 construct: purchased Promega (in-house HiBiT-GPCR construct library, NanoBRET)
Description: (§1) Each tracer candidate was screened across the entire library of HiBiT-GPCR constructs using NanoBRET as the detection modality. As depicted in Figure 4A, the specificity of interactions was evaluated through decrease in BRET due to competitive displacement of a bound tracer by excess parental compound. Each tracer was analyzed for binding to each HiBiT-GPCR fusion in the absence and in the presence of competing parental compound. Briefly, HEK293 cells were transfected with HiBiT-GPCR constructs diluted into promoterless DNA to reduce expression and maximize translocation to the cell surface. Each tracer candidate was then screened at concentrations of 1 μM and 0.1 μM across cells expressing these fusions. Cells were treated for 1.5 h with tracer either alone or in the presence of 20 μM competing parental compound (i.e., control). BRET was measured upon addition of purified LgBiT and subsequent complementation with HiBiT genetically fused to a GPCR. The specificity of interactions was assessed through a decrease in BRET signal due to competitive displacement of the bound tracer. To further gauge the robustness of these interactions, the fold response over the control (i.e., BRETtracer/BRETcontrol) was calculated. We chose a 1.5-fold response, which translates to ≥7-fold signal over noise as the minimal threshold required to score an interaction as positive. […]. Below we highlight the screening results obtained for our exemplary fluorescent tracers based on Clozapine, Amitriptyline and AZD1283.
(§2) HiBiT-GPCR DNA constructs were diluted in 10 mM Tris pH 8 to a final concentration of 0.01 μg/μL, arrayed in 96-well plates and stored at −20 °C. For transfection, HEK293 cells were suspended in Opti-MEM (without phenol red) supplemented with 2% fetal bovine serum (Seradigm) and 100 units/mL penicillin–streptomycin (Gibco) at a final concentration of 220,000 cells/mL and dispensed into white 96-well plates at 90 μL/well. Subsequent transfections and screens were carried using an Agilent Bravo Automated Liquid Handling Platform. First, the 96-well HiBiT DNA arrays were diluted 25-fold in Opti-MEM (without serum or phenol red) to a final concentration of 0.0004 μg/μL and 20 μL of the diluted DNAs were transferred into new 96-well plates. Next, promoterless carrier DNA (1 μg/μL) was diluted 25-fold (0.04 μg/μL) and then dispensed into the diluted arrays at 20 μL/well. Following brief mixing, Viafect transfection reagent (Promega) diluted 16-fold into Opti-MEM was dispensed into the plates at 40 μL/well. After mixing by pipetting, plates were incubated for 10 min on the pipetting station deck. The DNA-transfection reagent complexes were then added to plates containing cells. To facilitate the screen, 10 μL of DNA-transfection reagent complexes were added in duplicates to the top 4 and bottom 4 rows, resulting in two identical 48-well arrays per plate. Plates with transfected cells were incubated for 18–20 h at 37 °C/5% CO2. A screen of each tracer across the entire library using two different concentrations requires duplicate plates of transfected cells. Depending on the number of tracers being screened, transfections can be scaled up using the same ratios. The next day, for each tracer, four 20× screening solutions in tracer dilution buffer (Promega) were prepared: two duplicates at final concentration of 20 μM and two duplicates at a final concentration of 2 μM. A competing unmodified compound was added to one of each duplicate at a final concentration of 400 μM. The four resulting solutions were diluted 4-fold in Opti-MEM without serum or phenol red to generate 5× solutions (5 µM and 0.5 µM tracer +/− 100 μM competing compound). To screen the library, a BioTek MultiFlo FX liquid dispenser was used to dispense 22.5 µL of tracer solution to the top 4 rows and 22.5 µL tracer + competing compound solution to the 4 bottom rows. Plates were briefly mixed on an orbital shaker and incubated for 1.5 h at room temperature. […]

BDKRB2 = molecular target: T2, BDKRB2 (Homo sapiens, UniProt P30411); assay: NanoBRET screen HiBiT-BDKRB2 in HEK293
T2 construct: purchased Promega (in-house HiBiT-GPCR construct library, NanoBRET)
T2 sequence (P30411 1-391): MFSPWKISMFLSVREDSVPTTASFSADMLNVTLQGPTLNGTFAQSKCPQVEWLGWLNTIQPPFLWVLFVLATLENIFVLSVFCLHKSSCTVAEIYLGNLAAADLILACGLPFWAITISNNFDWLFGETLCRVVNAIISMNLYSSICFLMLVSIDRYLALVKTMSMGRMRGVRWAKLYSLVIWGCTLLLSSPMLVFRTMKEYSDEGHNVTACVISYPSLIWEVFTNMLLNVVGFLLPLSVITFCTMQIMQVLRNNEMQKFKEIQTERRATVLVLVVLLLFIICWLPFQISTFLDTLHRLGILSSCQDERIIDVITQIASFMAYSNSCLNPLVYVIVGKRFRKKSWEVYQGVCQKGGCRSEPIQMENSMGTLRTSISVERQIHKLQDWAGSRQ
Description: as §1, §2

VIPR2 = molecular target: T3, VIPR2 (Homo sapiens, UniProt P41587); assay: NanoBRET screen HiBiT-VIPR2 in HEK293
T3 construct: purchased Promega (in-house HiBiT-GPCR construct library, NanoBRET)
T3 sequence (P41587 24-438): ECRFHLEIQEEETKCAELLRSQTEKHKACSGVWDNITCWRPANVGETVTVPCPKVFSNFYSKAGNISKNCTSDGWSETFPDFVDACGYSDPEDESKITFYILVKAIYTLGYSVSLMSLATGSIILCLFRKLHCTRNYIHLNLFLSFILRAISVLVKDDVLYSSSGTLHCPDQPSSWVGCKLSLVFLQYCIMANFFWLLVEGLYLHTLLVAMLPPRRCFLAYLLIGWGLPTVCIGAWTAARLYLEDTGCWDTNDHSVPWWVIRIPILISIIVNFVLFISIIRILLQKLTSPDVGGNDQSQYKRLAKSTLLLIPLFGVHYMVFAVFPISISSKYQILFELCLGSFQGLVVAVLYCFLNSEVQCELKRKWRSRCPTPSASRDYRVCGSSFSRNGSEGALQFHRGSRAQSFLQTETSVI
Description: as §1, §2

F2R = molecular target: T4, F2R (Homo sapiens, UniProt P25116); assay: NanoBRET screen HiBiT-F2R in HEK293
T4 construct: purchased Promega (in-house HiBiT-GPCR construct library, NanoBRET)
T4 sequence (P25116 22-425): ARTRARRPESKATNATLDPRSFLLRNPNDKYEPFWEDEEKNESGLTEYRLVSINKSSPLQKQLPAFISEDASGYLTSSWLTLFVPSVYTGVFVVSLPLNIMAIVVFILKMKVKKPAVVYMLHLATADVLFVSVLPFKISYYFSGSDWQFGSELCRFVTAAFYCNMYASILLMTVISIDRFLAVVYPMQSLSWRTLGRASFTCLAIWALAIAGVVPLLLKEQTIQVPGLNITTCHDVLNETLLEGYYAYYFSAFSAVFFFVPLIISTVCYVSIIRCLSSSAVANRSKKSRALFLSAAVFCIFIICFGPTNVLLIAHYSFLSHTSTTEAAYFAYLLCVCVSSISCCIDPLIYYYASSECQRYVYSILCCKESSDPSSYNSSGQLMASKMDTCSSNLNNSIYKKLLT
Description: as §1, §2

T1 sequence (P43088 whole entry): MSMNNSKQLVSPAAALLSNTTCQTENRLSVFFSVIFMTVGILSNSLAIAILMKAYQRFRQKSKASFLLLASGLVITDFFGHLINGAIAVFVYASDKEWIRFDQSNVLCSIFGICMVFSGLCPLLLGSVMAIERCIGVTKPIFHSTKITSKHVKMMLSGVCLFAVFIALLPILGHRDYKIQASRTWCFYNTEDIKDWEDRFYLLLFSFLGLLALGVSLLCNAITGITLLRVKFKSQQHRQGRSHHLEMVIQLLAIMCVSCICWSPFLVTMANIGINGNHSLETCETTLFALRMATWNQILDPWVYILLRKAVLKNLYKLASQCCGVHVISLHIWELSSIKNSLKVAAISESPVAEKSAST

SMILES	NanoBRET Fold Response (PTGFR; PTGFR, tracer 0.1μM)	NanoBRET Fold Response (PTGFR; PTGFR, tracer 1μM)	NanoBRET Fold Response (BDKRB2; BDKRB2, tracer 0.1μM)	NanoBRET Fold Response (BDKRB2; BDKRB2, tracer 1μM)	NanoBRET Fold Response (VIPR2; VIPR2, tracer 0.1μM)	NanoBRET Fold Response (VIPR2; VIPR2, tracer 1μM)	NanoBRET Fold Response (F2R; F2R, tracer 0.1μM)	NanoBRET Fold Response (F2R; F2R, tracer 1μM)	further results
O=C(CCc1ccc2n1[B-](F)(F)[N+]1=C(c3ccc[nH]3)C=CC1=C2)NCCOCCOCCNC(=O)OCCOCCN1CCN(C2=Nc3ccccc3Sc3ccccc32)CC1 [Quetiapine-a-2-NB590]	1.00	1.06	1.11	0.81	0.96	0.96	1.09	1.41	–
COc1ccccc1N1CCN(CCCCN2C(=O)c3ccc(CNC(=O)CCOCCOCCOCCOCCNC(=O)CCc4ccc5n4[B-](F)(F)[N+]4=C(c6ccc[nH]6)C=CC4=C5)cc3C2=O)CC1 [NAN-190-2-NB590]	1.00	1.00	1.08	0.98	1.05	1.03	1.07	0.93	–
CN1CCN(C2=Nc3cc(Cl)ccc3N(CC(=O)NCCOCCOCCOCCOCCNC(=O)CCc3ccc4n3[B-](F)(F)[N+]3=C(c5ccc[nH]5)C=CC3=C4)c3ccccc32)CC1 [Clozapine-c-2-NB590]	–	–	–	–	–	–	–	–	NanoBRET Fold Response (PTGFR; PTGFR, 0.1μM tracer): 1.00; NanoBRET Fold Response (PTGFR; PTGFR, 1μM tracer): 1.10; NanoBRET Fold Response (BDKRB2; BDKRB2, 0.1μM tracer): 1.00; NanoBRET Fold Response (BDKRB2; BDKRB2, 1μM tracer): 1.03; NanoBRET Fold Response (VIPR2; VIPR2, 0.1μM tracer): 0.97; NanoBRET Fold Response (VIPR2; VIPR2, 1μM tracer): 0.86; NanoBRET Fold Response (F2R; F2R, 0.1μM tracer): 0.99; NanoBRET Fold Response (F2R; F2R, 1μM tracer): 0.99
COc1ccc2[nH]c(-c3ccc(CNC(=O)CCOCCOCCOCCOCCNC(=O)CCc4ccc5n4[B-](F)(F)[N+]4=C(c6ccc[nH]6)C=CC4=C5)cc3)c(CCNC(C)=O)c2n1 [AzomelatoninICO9-2-NB590]	–	–	–	–	–	–	–	–	NanoBRET Fold Response (PTGFR; 0.1μM tracer): 0.97; NanoBRET Fold Response (PTGFR; 1μM tracer): 0.91; NanoBRET Fold Response (BDKRB2; 0.1μM tracer): 0.96; NanoBRET Fold Response (BDKRB2; 1μM tracer): 0.93; NanoBRET Fold Response (VIPR2; 0.1μM tracer): 0.99; NanoBRET Fold Response (VIPR2; 1μM tracer): 1.12; NanoBRET Fold Response (F2R; 0.1μM tracer): 1.38; NanoBRET Fold Response (F2R; 1μM tracer): 0.84
O=C(CCOCCOCCOCCOCCNC(=O)CCc1ccc2n1[B-](F)(F)[N+]1=C(c3ccc[nH]3)C=CC1=C2)NCCCN1CCN(C2=Nc3cc(Cl)ccc3Nc3ccccc32)CC1 [Clozapine-a-2-NB590]	–	–	–	–	–	–	–	–	NanoBRET Fold Response (PTGFR; PTGFR, 0.1μM tracer): 1.04; NanoBRET Fold Response (PTGFR; PTGFR, 1μM tracer): 1.02; NanoBRET Fold Response (BDKRB2; BDKRB2, 0.1μM tracer): 1.02; NanoBRET Fold Response (BDKRB2; BDKRB2, 1μM tracer): 1.13; NanoBRET Fold Response (VIPR2; VIPR2, 0.1μM tracer): 1.14; NanoBRET Fold Response (VIPR2; VIPR2, 1μM tracer): 0.89; NanoBRET Fold Response (F2R; F2R, 0.1μM tracer): 1.12; NanoBRET Fold Response (F2R; F2R, 1μM tracer): 1.05
CCCn1c(=O)c2[nH]c(-c3ccc(OCC(=O)NCCNC(=O)CCOCCNC(=O)c4ccc(CNC(=O)CCc5ccc6n5[B-](F)(F)[N+]5=C(c7ccc[nH]7)C=CC5=C6)cc4)cc3)nc2n(CCC)c1=O [XAC-3-NB590]	1.02	0.98	1.00	1.14	0.72	0.91	1.20	0.80	–
O=C(CCc1ccc2n1[B-](F)(F)[N+]1=C(c3ccc[nH]3)C=CC1=C2)NCc1ccc(C(=O)NCCOCCOCCNCC(O)COc2cccc3ccccc23)cc1 (centres unmarked) [Propranolol-3-NB590]	–	–	–	–	–	–	–	–	NanoBRET Fold Response (PTGFR; PTGFR, 0.1μM): 0.97; NanoBRET Fold Response (PTGFR; PTGFR, 1μM): 1.00; NanoBRET Fold Response (BDKRB2; BDKRB2, 0.1μM): 1.04; NanoBRET Fold Response (BDKRB2; BDKRB2, 1μM): 1.07; NanoBRET Fold Response (VIPR2; VIPR2, 0.1μM): 0.95; NanoBRET Fold Response (VIPR2; VIPR2, 1μM): 1.03; NanoBRET Fold Response (F2R; F2R, 0.1μM): 1.04; NanoBRET Fold Response (F2R; F2R, 1μM): 1.06
O=C(CCc1ccc2n1[B-](F)(F)[N+]1=C(c3ccc[nH]3)C=CC1=C2)NCc1ccc(C(=O)NCCOCCC(=O)N[C@@H]2CC[C@@]3(O)[C@H]4Cc5ccc(O)c6c5[C@@]3(CCN4CC3CC3)[C@H]2O6)cc1 [Naltrexone-3-NB590]	1.10	0.91	1.07	0.94	1.17	1.05	1.02	0.99	–
N#CN=C(NCCCOc1cccc(CN2CCCCC2)c1)NCCNC(=O)CCOCCOCCOCCOCCNC(=O)CCc1ccc2n1[B-](F)(F)[N+]1=C(c3ccc[nH]3)C=CC1=C2 [Aminopotentidine-2-NB590]	0.99	0.93	1.00	1.01	1.01	1.08	1.06	1.00	–
COc1ccc2c(n1)c(CCNC(C)=O)cn2CCNC(=O)CCc1ccc2n1[B-](F)(F)[N+]1=C(c3ccc[nH]3)C=CC1=C2 [Azamelatonin-1-NB590]	–	–	–	–	–	–	–	–	NanoBRET Fold Response (PTGFR; 0.1μM tracer): 1.13; NanoBRET Fold Response (PTGFR; 1μM tracer): 0.90; NanoBRET Fold Response (BDKRB2; 0.1μM tracer): 1.00; NanoBRET Fold Response (BDKRB2; 1μM tracer): 1.05; NanoBRET Fold Response (VIPR2; 0.1μM tracer): 0.99; NanoBRET Fold Response (VIPR2; 1μM tracer): 0.99; NanoBRET Fold Response (F2R; 0.1μM tracer): 0.98; NanoBRET Fold Response (F2R; 1μM tracer): 0.96
